According to US6638938B1, “Method for preventing tissue injury from hypoxia” (Cell Therapeutics, Inc., priority 1993, dated 2003):

Columns and labels:
[1] = serum level of Lisofylline in hemorrhaged mice; format: in vivo; settings: male, mouse, intravenous, hemorrhaged Balb/C mice, 5 minutes after 100 mg/kg Lisofylline given with resuscitation blood, read-out: serum levels of Lisofylline
Experimental: (§1) This example illustrates a study of Lisofylline in a murine hemorrhage and resuscitation model. Male Balb/C mice, 8-12 weeks of age, were obtained from Harlan-Sprague Dawley (Indianapolis, Ind.). The animals were kept on a 12 hour light/dark cycle with free access to food and water. With this model, 30% of the calculated blood volume (approximately 0.55 ml for a 20 gram mouse) was withdrawn from a methoxyflurane anesthetized mouse by cardiac puncture over a 60-second period. The blood was collected into a heparinized syringe (5 units heparin), kept at 37° C. for one hour, then reinfused into the mouse through a retroorbital plexus injection. Using this method, one is able to resuscitate all hemorrhaged mice without complication. The total period of methoxyflurane anesthesia is less than 2 minutes in all cases. The mortality rate with this hemorrhage protocol is approximately 12%, with all deaths occurring over the 24 hours post hemorrhage, and most deaths occurring within the one hour post hemorrhage.
Mice were treated with 100 mg/kg Lisofylline in 0.2 ml PBS and given initially i.v., by retroorbital injection, then i.p. every 8 hours for a total of 9 doses. In hemorrhaged mice, the Lisofylline in PBS was added to the shed blood, and then given retroorbitally with the blood during the resuscitation phase. […]

[2] = test system: human neutrophils (PA, lyso-PA); test: PA and lyso-PA mass in human neutrophils after hypoxia/reoxygenation; format: cell-based
Experimental: This example provides evidence from a group of experiments of the nexus and relationship between inhibiting linoleate-enriched PA species and reversal of hypoxic/reoxygenation tissue injury with Lisofylline. Lisofylline treated human neutrophils were exposed to hypoxia and then reoxygenation in vitro. Human neutrophils (PMN) were prepared from heparinized blood obtained from consenting, healthy human volunteers, isolated and highly purified (>99%)-by percoll gradient anddifferential centrifugation and resuspended in HBSS (Hanks balanced salt solution). Human neutrophils were placed in hypoxia (95% N2+5% CO2) for 60 min and then reoxygenated (21% O2+5% CO2) for 20 min.
Following hypoxia/reoxygenation, human neutrophils had increased PA concentrations with a retention time (Rf) characteristic of linoleate-enriched PA species. The analysis was done by fixing the neutrophils in ice-cold methanol, extracting the lipids and then separating them by HPLC using a Waters μ-Porosil silica column and an anisocratic gradient (Bursten et al., J. Biol. Chem. 266:20732, 1991). Lipids in the column effluent were monitored at 206-224nm. HPLC fractions were also analyzed by thin layer chromatography (TLC), amine content, acyl content and mass spectroscopy to confirm peak identities. Fast-atom bombardrment (FAB) mass spectroscopy spectra were acquired using a VG 70 SEQ tandem hybrid instrument of EBqQ geometry (VG Analytical, Altricham UK) as described in Bursten et al. The mass of total PA varied from 0.65-0.75% in unstimulated neutrophils to 2.7-3.6% of total detectable lipids in stimulated neutrophils (i.e., increased by 3.5-5 fold), whereas lyso-PA mass in neutrophils pretreated with Lisofylline and subject to hypoxia/reoxygenation stimulation could range as high as 7-8% of total detectable lipids. Hypoxia/reoxygenated neutrophils preincubated with 10 μM to 100 μM Lisofylline had decreased PA and increased lyso-PA total mass compared to untreated but stimulated neutrophils.

[3] = test system: neutrophils in BAL; test: percentage of neutrophils among BAL samples; format: in vivo, Balb/C mice; settings: hemorrhage/resuscitated mice treated; 11±2% in untreated; p<0.05
Experimental: as §1, with “The total period of methoxyflurane anesthesia is less than 2 minutes in all cases. The mortality rate with this hemorrhage protocol is approximately 12%, with all deaths occurring over the 24 hours post hemorrhage, and most deaths occurring within the one hour post hemorrhage.” left out
Three days following hemorrhage and resuscitation or the initiation of treatment with Lisofylline therapy in normal treated animals, mice were anesthetized with methoxyflurane and sacrificed by exsanguination through cardiac puncture into a heparinized (5 U) syringe. […] As determined by cytology, there was less than 3% contamination of alveolar macrophages with lymphocytes, neutrophils, or other mononuclear cell populations when BAL specimens are collected in normal Balb/C mice, but approximately 11±2% of isolated cells are neutrophils in mice subjected 3 days previously to 30% blood volume hemorrhage with resuscitation one hour later. […]

[4] = test system: TNFα; test: immunohistochemical staining of lung samples for TNFα; format: in vivo; settings: hemorrhaged/resuscitated mice or normal mice treated
From the text: In sections from mice subjected to hemorrhage and resuscitation 3 days previously, staining for TNFα was present, particularly in the perivascular areas.

[5] = hypoxia/reoxygenated neutrophils preincubated with 10 μM to 100 μM, versus untreated but stimulated

For `C[C@@H](O)CCCCn1c(=O)c2c(ncn2C)n(C)c1=O` [Lisofylline, 1-R-(5-hydroxyhexyl)-3,7-dimethylxanthine], the concentration at 5 min [1] was 44 ± 6 µg/mL, the PA total mass [2, 5] was “decreased” and the lyso-PA total mass [2, 5] was “increased”. For the same compound, the lyso-PA mass ([2]; neutrophils pretreated with Lisofylline, hypoxia/reoxygenation stimulation, could range as high as) was 7-8 % of total detectable lipids, the “percentage of neutrophils among BAL samples” value [3] was 6±2% and the “immunohistochemical staining of lung for TNFα” value [4] was “no signal”.
